We go through 4 compounds from PMC8550792, “Evolution of kinase polypharmacology across HSP90 drug discovery” (Cell Chemical Biology, 2021).

Common to all, as to assay: biochemical
Common to all, as to assay type: biochemical

Experiment [1] deals with T1, 382 unique human kinases (Homo sapiens, UniProt P05129).
T1 construct: purchased Reaction Biology (HotSpot contract assay)
The settings on record: kinase PKCg, compound 10 uM; for remaining activity at 10 µM: read-out: % Enzyme Activity (relative to DMSO controls).

In experiment [2] the target is T2, 382 unique human kinases (Homo sapiens, UniProt P00533, C797S).
T2 construct: purchased Reaction Biology (HotSpot contract assay)
The note with it: EGFR (C797S), 10 uM; for remaining activity at 10 µM: read-out: % Enzyme Activity (relative to DMSO controls).

In experiment [3] the target is T3, 382 unique human kinases (Homo sapiens, UniProt P36894).
T3 construct: purchased Reaction Biology (HotSpot contract assay)
T3 sequence (P36894 24-532): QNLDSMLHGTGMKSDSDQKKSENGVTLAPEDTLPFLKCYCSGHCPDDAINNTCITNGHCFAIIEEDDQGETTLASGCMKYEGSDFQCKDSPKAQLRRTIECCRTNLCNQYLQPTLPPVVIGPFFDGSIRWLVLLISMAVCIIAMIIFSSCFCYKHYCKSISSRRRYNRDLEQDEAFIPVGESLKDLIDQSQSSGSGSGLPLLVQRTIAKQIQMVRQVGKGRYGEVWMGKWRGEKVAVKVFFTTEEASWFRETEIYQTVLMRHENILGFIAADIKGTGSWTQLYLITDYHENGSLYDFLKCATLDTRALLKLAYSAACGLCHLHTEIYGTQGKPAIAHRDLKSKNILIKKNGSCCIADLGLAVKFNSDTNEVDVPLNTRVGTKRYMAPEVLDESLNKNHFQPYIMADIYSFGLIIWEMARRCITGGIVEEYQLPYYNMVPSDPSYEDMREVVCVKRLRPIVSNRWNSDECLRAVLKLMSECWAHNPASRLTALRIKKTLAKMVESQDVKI
The note with it: ALK3/BMPR1A, 10 uM; for remaining activity at 10 µM: read-out: % Enzyme Activity (relative to DMSO controls).

For experiment [4], the target named is T4, 382 unique human kinases (Homo sapiens, UniProt P52333).
T4 construct: purchased Reaction Biology (HotSpot contract assay)
T4 sequence (P52333 1-1124): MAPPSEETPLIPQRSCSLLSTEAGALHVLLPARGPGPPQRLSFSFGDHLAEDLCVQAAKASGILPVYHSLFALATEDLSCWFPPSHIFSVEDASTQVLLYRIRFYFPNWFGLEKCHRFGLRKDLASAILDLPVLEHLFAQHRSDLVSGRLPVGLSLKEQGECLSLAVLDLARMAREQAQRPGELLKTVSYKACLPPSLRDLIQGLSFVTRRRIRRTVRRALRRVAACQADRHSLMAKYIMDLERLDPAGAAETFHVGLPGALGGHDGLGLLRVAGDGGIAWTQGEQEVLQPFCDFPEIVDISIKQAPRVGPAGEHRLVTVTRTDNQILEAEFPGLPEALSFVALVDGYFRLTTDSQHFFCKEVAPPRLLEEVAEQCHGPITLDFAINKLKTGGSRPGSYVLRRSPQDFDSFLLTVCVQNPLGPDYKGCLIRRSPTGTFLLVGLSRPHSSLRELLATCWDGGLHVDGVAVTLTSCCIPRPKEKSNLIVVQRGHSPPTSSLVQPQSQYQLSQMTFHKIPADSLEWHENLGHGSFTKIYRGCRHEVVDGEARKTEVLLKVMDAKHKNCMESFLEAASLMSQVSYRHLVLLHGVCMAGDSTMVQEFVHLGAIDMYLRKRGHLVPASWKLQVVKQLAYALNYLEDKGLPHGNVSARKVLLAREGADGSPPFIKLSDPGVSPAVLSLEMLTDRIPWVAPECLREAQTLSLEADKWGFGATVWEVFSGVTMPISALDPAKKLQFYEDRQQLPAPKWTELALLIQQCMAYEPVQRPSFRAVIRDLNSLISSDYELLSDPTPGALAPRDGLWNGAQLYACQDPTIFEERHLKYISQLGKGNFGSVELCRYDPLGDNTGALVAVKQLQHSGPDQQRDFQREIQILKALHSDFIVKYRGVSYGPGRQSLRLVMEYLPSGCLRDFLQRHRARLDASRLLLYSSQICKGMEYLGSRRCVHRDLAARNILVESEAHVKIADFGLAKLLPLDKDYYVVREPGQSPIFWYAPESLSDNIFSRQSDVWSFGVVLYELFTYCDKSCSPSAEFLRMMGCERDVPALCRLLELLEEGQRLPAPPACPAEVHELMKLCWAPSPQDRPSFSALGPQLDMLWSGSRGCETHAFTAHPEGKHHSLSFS
The note with it: JAK3, 10 uM; for remaining activity at 10 µM: read-out: % Enzyme Activity (relative to DMSO controls).

Experiment [5] deals with T5, 382 unique human kinases (Homo sapiens, UniProt Q9UM73).
T5 construct: purchased Reaction Biology (HotSpot contract assay)
T5 sequence (Q9UM73 19-1620): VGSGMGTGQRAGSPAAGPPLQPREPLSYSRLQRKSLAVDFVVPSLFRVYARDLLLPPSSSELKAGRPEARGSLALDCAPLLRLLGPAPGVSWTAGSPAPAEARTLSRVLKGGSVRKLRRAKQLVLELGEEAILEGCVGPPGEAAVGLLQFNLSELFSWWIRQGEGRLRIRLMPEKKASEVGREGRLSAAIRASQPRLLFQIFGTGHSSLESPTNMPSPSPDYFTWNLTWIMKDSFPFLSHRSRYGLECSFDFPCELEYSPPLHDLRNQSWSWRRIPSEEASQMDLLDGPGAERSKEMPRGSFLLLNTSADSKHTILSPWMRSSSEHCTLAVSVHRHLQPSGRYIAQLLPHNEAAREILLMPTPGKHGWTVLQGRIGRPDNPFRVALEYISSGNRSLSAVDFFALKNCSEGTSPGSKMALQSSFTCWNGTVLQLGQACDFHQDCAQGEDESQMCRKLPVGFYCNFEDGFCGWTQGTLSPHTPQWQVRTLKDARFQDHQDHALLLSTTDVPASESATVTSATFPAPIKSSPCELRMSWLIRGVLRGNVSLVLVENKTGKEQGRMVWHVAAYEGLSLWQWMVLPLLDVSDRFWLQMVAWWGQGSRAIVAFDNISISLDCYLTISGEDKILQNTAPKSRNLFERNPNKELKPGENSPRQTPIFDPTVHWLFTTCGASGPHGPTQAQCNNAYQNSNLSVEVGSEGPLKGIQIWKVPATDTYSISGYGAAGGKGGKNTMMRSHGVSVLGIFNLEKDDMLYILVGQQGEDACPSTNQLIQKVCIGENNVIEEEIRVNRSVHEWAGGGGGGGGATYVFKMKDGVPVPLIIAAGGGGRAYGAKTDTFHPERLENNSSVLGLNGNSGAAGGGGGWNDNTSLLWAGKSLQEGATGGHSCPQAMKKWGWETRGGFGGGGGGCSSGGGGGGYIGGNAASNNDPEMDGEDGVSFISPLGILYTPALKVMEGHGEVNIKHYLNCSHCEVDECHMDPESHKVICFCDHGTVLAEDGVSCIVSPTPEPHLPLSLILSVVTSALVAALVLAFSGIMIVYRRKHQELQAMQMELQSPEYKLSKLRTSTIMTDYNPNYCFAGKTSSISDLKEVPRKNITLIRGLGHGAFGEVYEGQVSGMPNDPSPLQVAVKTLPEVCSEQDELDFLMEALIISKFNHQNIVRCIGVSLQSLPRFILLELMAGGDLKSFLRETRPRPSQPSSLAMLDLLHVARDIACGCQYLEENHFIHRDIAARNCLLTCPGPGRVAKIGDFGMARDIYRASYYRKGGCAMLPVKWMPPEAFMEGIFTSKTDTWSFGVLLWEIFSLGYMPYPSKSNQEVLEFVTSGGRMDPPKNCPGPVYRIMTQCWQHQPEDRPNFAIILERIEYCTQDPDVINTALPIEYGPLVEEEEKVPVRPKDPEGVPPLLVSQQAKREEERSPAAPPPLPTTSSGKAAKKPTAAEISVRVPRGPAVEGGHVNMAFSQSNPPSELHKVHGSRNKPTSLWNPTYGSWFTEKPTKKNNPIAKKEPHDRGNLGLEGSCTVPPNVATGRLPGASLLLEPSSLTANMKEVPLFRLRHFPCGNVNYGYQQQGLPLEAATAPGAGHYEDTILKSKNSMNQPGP
The settings on record: ALK, 10 uM; for remaining activity at 10 µM: read-out: % Enzyme Activity (relative to DMSO controls).

Experiment [6] concerns the target T6, 382 unique human kinases (Homo sapiens, UniProt Q00537).
T6 construct: purchased Reaction Biology (HotSpot contract assay)
The note with it: kinase CDK17/cyclin Y (PCTK2), compound 10 uM; for remaining activity at 10 µM: read-out: % Enzyme Activity (relative to DMSO controls).

Experiment [7] concerns the target T7, 382 unique human kinases (Homo sapiens, UniProt P10721, D820E).
T7 construct: purchased Reaction Biology (HotSpot contract assay)
The note with it: c-Kit (D820E), 10 uM; for remaining activity at 10 µM: read-out: % Enzyme Activity (relative to DMSO controls).

Experiment [8] concerns the target T8, 382 unique human kinases (Homo sapiens, UniProt Q14012).
T8 construct: purchased Reaction Biology (HotSpot contract assay)
The note with it: CAMK1a, 10 uM; for remaining activity at 10 µM: read-out: % Enzyme Activity (relative to DMSO controls).

The target of experiment [9] is T9, 382 unique human kinases (Homo sapiens, UniProt Q16832, N456S).
T9 construct: purchased Reaction Biology (HotSpot contract assay)
T9 sequence (Q16832 22-855 N456S): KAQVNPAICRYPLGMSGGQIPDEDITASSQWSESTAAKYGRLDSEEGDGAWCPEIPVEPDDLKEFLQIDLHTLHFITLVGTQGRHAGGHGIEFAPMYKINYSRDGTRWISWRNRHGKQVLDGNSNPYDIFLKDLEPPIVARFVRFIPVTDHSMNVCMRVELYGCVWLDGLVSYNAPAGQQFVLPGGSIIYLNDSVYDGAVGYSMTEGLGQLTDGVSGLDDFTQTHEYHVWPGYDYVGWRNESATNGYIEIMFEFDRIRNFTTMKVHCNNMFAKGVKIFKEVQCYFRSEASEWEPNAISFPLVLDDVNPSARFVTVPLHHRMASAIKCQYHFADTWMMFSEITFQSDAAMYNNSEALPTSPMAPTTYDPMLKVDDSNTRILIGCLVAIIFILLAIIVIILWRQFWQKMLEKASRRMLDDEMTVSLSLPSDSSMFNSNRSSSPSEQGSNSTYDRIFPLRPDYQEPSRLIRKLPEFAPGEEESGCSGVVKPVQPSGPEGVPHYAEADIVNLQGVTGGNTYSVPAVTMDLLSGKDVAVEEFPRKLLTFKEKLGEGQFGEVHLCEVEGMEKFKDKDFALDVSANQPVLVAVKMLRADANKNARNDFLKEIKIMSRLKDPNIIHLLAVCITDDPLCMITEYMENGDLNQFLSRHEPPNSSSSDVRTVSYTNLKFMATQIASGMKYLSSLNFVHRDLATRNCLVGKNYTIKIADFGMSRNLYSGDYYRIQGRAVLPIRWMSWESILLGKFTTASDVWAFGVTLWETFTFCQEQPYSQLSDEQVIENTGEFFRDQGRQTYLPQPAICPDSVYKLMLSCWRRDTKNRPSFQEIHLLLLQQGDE
The note with it: DDR2 (N456S), [ATP] 2.5 µM, compound 10 uM; for remaining activity at 10 µM: read-out: % Enzyme Activity (relative to DMSO controls).

The target in experiment [10] is T10, 382 unique human kinases (Homo sapiens, UniProt P07948).
T10 construct: purchased Reaction Biology (HotSpot contract assay)
T10 sequence (P07948 whole entry): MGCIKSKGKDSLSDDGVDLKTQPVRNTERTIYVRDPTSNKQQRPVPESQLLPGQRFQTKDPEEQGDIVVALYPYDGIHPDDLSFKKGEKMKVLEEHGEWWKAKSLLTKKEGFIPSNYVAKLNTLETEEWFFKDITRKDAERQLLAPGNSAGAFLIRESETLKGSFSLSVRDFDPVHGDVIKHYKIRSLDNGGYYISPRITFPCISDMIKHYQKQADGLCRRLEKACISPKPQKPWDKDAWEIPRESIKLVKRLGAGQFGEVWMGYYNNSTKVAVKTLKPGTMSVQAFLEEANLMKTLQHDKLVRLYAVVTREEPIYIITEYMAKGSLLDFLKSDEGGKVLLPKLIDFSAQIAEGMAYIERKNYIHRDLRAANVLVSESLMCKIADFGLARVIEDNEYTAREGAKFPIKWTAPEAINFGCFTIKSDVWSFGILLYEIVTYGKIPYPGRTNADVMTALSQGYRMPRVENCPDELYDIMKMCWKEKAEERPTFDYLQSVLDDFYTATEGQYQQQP
The settings on record: LYN, [ATP] 15 µM, compound 10 uM; for remaining activity at 10 µM: read-out: % Enzyme Activity (relative to DMSO controls).

Experiment [11] concerns the target T11, 382 unique human kinases (Homo sapiens, UniProt P08581, T992I).
T11 construct: purchased Reaction Biology (HotSpot contract assay)
The note with it: c-MET (T992I), 10 uM; for remaining activity at 10 µM: read-out: % Enzyme Activity (relative to DMSO controls).

Structures are written as SMILES.

T6 sequence (Q00537 whole entry): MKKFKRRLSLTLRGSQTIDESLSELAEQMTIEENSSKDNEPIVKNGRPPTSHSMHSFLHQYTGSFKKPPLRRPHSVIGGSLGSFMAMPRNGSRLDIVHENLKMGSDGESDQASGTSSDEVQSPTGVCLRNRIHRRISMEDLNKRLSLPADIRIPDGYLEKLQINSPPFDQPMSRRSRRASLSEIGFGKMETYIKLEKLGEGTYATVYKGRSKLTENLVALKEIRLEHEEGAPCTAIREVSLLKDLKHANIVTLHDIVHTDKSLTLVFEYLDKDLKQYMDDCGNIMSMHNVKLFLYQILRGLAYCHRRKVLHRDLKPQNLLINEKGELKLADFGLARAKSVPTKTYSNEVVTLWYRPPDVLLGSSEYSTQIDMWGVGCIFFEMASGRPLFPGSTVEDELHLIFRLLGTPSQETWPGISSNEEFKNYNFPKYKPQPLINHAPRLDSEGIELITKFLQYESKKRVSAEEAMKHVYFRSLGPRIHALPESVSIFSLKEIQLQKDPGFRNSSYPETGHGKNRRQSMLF
T8 sequence (Q14012 whole entry): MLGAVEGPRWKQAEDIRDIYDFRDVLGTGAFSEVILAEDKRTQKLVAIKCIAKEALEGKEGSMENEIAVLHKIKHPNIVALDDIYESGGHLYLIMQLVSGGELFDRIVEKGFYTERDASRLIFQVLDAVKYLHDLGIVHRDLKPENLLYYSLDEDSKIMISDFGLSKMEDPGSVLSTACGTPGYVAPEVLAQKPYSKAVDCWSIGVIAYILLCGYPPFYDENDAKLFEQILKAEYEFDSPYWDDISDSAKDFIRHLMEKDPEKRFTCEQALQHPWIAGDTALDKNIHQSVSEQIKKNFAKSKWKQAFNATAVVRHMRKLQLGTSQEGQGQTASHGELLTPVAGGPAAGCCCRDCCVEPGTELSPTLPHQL

For the compound `CC(C)c1cc(-c2n[nH]c(=O)n2-c2ccc3c(ccn3C)c2)c(O)cc1O` [Ganetespib (STA9090)], the remaining activity at 10 µM on 382 unique human kinases [1] stood at 91.3%; on 382 unique human kinases [2], 70.9%; on 382 unique human kinases [3] it was 59.1%; at 382 unique human kinases [4], 60.1%; at 382 unique human kinases [5], 67.5%; on 382 unique human kinases [6] it was 86.5%. Moreover, the remaining activity at 10 µM at 382 unique human kinases [7] was 72.5%.
`CC(C)c1cc(-c2n[nH]c(=O)n2-c2ccc3c(ccn3C)c2)c(O)cc1O` [Ganetespib]: the remaining activity at 10 µM at 382 unique human kinases [8] came out at 91.4%; on 382 unique human kinases [9], 2.65%; at 382 unique human kinases [10], 21.7%; at 382 unique human kinases [11] it was 95.6%.
For the compound `CCNC(=O)c1noc(-c2cc(C(C)C)c(O)cc2O)c1-c1ccc(CN2CCOCC2)cc1` [Luminespib (AUY-922)], the “% Enzyme Activity (relative to DMSO controls)” value on 382 unique human kinases [1] stood at 97.02%; at 382 unique human kinases [2], 99.85%; on 382 unique human kinases [3], 99.39%; on 382 unique human kinases [4], 102.74%; at 382 unique human kinases [5], 95.41%; at 382 unique human kinases [6], 80.06%. Further, on 382 unique human kinases [7], the “% Enzyme Activity (relative to DMSO controls)” value was determined as 88.12%. Further, the remaining activity at 10 µM came out at 99.7% on 382 unique human kinases [1]; 103% at 382 unique human kinases [2]; 100% on 382 unique human kinases [3]; 103% at 382 unique human kinases [4]; 97.2% at 382 unique human kinases [5]; 80.7% at 382 unique human kinases [6]. Also, the remaining activity at 10 µM on 382 unique human kinases [7] was determined as 88.4%.
With `CCNC(=O)c1noc(-c2cc(C(C)C)c(O)cc2O)c1-c1ccc(CN2CCOCC2)cc1` [Luminespib], the “% Enzyme Activity (relative to DMSO controls)” value on 382 unique human kinases [8] came out at 103.58%; on 382 unique human kinases [9], 85.24%; at 382 unique human kinases [10], 38.08%; at 382 unique human kinases [11] it was 90.73%. The remaining activity at 10 µM on 382 unique human kinases [8] was found to be 109%; on 382 unique human kinases [9] it was 90.4%; at 382 unique human kinases [10], 39.2%; at 382 unique human kinases [11] it was 91.3%.
